Results taken from US11634404B2 (priority 2016, dated 2023).

Legend:
Type in all cases: cell-based
[1] = molecular target: D3 DAR (Homo sapiens (Human), UniProt P35462); conditions: β-arrestin recruitment, agonist; for D3 Emax: 'curve' = wrapped cell 'curve interrupted'
[2] = molecular target: T1, D2 DAR (Homo sapiens (Human), UniProt P14416); conditions: β-arrestin recruitment, agonist; for D2 Emax: 'curve' = wrapped cell 'curve interrupted'
[3] = molecular target: T1, D2 DAR; conditions: β-arrestin recruitment, antagonist; for D2 Imax: 'curve' = wrapped cell 'curve interrupted'

T1 sequence (P14416 whole entry): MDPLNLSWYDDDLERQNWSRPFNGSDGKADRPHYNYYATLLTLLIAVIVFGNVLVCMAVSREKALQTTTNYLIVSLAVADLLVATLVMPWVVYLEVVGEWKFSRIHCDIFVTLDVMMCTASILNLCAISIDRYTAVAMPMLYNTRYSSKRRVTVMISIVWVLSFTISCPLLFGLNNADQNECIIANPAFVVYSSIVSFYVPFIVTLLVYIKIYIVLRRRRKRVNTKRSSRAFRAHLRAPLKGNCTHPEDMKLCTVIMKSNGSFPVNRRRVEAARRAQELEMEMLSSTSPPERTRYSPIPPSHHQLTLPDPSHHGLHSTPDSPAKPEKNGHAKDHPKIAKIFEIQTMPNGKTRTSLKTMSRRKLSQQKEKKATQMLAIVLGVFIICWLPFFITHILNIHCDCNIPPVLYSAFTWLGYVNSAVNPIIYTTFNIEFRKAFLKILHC
Chain of D3 DAR (P35462 whole entry): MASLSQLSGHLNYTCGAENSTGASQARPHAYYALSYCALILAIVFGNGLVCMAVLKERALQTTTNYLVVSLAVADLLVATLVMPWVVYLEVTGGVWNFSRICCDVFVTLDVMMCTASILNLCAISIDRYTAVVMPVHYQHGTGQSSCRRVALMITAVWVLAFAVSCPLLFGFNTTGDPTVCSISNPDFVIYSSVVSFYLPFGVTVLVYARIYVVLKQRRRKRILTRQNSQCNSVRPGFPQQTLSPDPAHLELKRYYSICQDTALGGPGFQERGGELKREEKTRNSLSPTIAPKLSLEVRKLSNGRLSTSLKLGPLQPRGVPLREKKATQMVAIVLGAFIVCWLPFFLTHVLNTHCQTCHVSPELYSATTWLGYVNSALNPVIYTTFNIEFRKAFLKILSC

| SMILES | D2 IC50 [3] | EC50 [1] [nM] | EC50 [2] [nM] | also measured |
| --- | --- | --- | --- | --- |
| COc1ccc(CCCN2CCN(C(=O)c3ccc(OC)cc3)CC2)cc1 [Compound 113] |  |  |  | D3 EC50 [1]: none; D3 Emax [1]: none |
| O=C(c1cc2ccccc2[nH]1)N1CCN(CCOc2ccc([N+](=O)[O-])cc2)CC1 [Compound 103] | none |  |  | D2 EC50 [2]: none; D2 Emax [2]: none |
| COc1cccc(OCCN2CCN(C(=O)c3cc4cc(OC)ccc4[nH]3)CC2)c1 [Compound 67] | None | 284 | 1700 |  |
| COc1cccc(OCCN2CCN(C(=O)c3cc4cc(OC)ccc4[nH]3)CC2)c1 [Compound 29] | None | 284 | 1700 |  |
| CCOc1ccc(OCCN2CCN(C(=O)c3cc4ccccc4[nH]3)CC2)cc1 [Compound 95] |  | > 100000 |  | D3 Emax [1]: curve; D2 EC50 [2]: none; D2 Emax [2]: none; IC50 [3]: > 100000 nM |
| O=C(c1cc2ccccc2[nH]1)N1CCN(CCOc2ccncc2)CC1 [Compound 107] |  | 472 |  | D2 EC50 [2]: none; D2 Emax [2]: none; IC50 [3]: > 100000 nM |
| COc1ccc(OCCN2CCN(C(=O)c3cc4c(Cl)cccc4[nH]3)CC2)cc1 [Compound 54] |  | 160 | 7100 | IC50 [3]: > 100000 nM |
| O=C(c1cc2cc(Cl)ccc2[nH]1)N1CCN(CCOc2cccnc2)CC1 [Compound 19] | None |  | 1400 |  |
| COc1ccc(C(=O)N2CCN(CCOc3ccc(OC)c(OC)c3)CC2)cc1 [Compound 38] |  | 3500 |  | D2 EC50 [2]: none; D2 Emax [2]: none; IC50 [3]: > 100000 nM |
| O=C(c1cc2ccccc2o1)N1CCN(CCOc2cccnc2)CC1 [Compound 88] | none | 42 | 1700 |  |
| COc1ccc(N(C)CCN2CCN(C(=O)c3cc4ccccc4[nH]3)CC2)cc1 [Compound 119] |  | 1900 |  | D2 EC50 [2]: none; D2 Emax [2]: none; IC50 [3]: > 100000 nM |
| Cc1cccc2cc(C(=O)N3CCN(CCOc4cccnc4)CC3)[nH]c12 [Compound 26] |  | 25.7 |  |  |
| O=C(c1cc2ccccc2[nH]1)N1CCN(CCOc2ccccc2)CC1 [Compound 2] |  | 9.2 | 1800 | IC50 [3]: 535 nM; D2 Imax [3]: 37 |
| O=C(c1cc2ccccc2[nH]1)N1CCN(CCOc2cncc(Cl)c2)CC1 [Compound 108] | none | 5 | 790 |  |
| Cn1c(C(=O)N2CCN(CCOc3cccnc3)CC2)cc2ccccc21 [Compound 27] | None | 37.6 | 6200 |  |
| COc1ccc(OCCN2CCN(S(=O)(=O)c3ccc(OC)cc3)CC2)cc1 [Compound 116] | none |  | > 100000 | D3 EC50 [1]: none; D3 Emax [1]: none; D2 Emax [2]: curve |
| COc1ccc(OCCN2CCN(C(=O)c3cc4cccc(OC)c4[nH]3)CC2)cc1 [Compound 45] |  | 980 | 6000 | IC50 [3]: > 100000 nM |
| COc1ccc(OCCN2CCN(C(=O)c3cc4ccc(Cl)cc4[nH]3)CC2)cc1 [Compound 52] |  | 225 |  |  |
| COc1cccc(OCCN2CCN(C(=O)c3cc4ccccc4[nH]3)CC2)c1 [Compound 92] |  |  |  | D3 EC50 [1]: none; D3 Emax [1]: none |
| O=C(c1cc2cccc(Cl)c2[nH]1)N1CCN(CCOc2cccnc2)CC1 [Compound 21] | None |  | 617 |  |
| COc1ccc2cc(C(=O)N3CCN(CCOc4cccnc4)CC3)[nH]c2c1 [Compound 23] |  | 6.4 |  |  |
| O=C(c1cc2ccccc2[nH]1)N1CCN(CCOc2ccc(OC(F)(F)F)cc2)CC1 [Compound 96] |  | 3800 | > 100000 | D2 Emax [2]: curve; IC50 [3]: > 100000 nM |

| SMILES | D2 IC50 [3] | EC50 [1] [nM] | EC50 [2] [nM] | also measured |
| --- | --- | --- | --- | --- |
| O=C(c1cc2ccncc2[nH]1)N1CCN(CCOc2cccnc2)CC1 [Compound 8] |  | 81 |  |  |
| Cc1cccc2cc(C(=O)N3CCN(CCOc4cccnc4)CC3)[nH]c12 [Compound 73] |  | 25.7 |  |  |
| COc1ccc(OCCN2CCN(C(=O)c3cc4c(C)cccc4[nH]3)CC2)cc1 [Compound 30] |  | 266 |  |  |
| COc1ccc(C(=O)N2CCN(c3ccc(OC)cc3)CC2)cc1 [Compound 114] |  |  |  | D3 EC50 [1]: none; D3 Emax [1]: none; D2 EC50 [2]: none; D2 Emax [2]: none; IC50 [3]: > 100000 nM |
| COc1ccc(OCCN(C)CCN(C)C(=O)c2ccc(OC)cc2)cc1 [Compound 118] |  |  |  | D3 EC50 [1]: none; D3 Emax [1]: none |
| COc1ccc(OCCN2CCN(C(=O)c3ccncc3)CC2)cc1 [Compound 43] | none | 22000 |  | D2 EC50 [2]: none; D2 Emax [2]: none |
| O=C(c1cc2c(Cl)cccc2[nH]1)N1CCN(CCOc2cccnc2)CC1 [Compound 18] | None |  | 217 |  |
| COc1ccc(OCCN2CCN(C(=O)c3cc4ccccc4o3)CC2)cc1 [Compound 62] |  |  |  | D2 EC50 [2]: none; D2 Emax [2]: none; IC50 [3]: 7700 nM; D2 Imax [3]: 100 |
| O=C(c1cc2cccnc2[nH]1)N1CCN(CCOc2cccnc2)CC1 [Compound 83] |  | 13.5 |  |  |
| CCc1ccc(OCCN2CCN(C(=O)c3cc4ccccc4[nH]3)CC2)cc1 [Compound 98] |  |  |  | D2 EC50 [2]: none; D2 Emax [2]: none; IC50 [3]: > 50000 nM |
| O=C(c1cc2ccc(Cl)cc2[nH]1)N1CCN(CCOc2cccnc2)CC1 [Compound 17] | None |  | 183 |  |
| Cc1cccc2[nH]c(C(=O)N3CCN(CCOc4cccnc4)CC3)cc12 [Compound 76] | none |  | 180 |  |
| COc1ccc(OCCN2CCN(C(=O)c3cc4ccccc4s3)CC2)cc1 [Compound 61] |  | 3300 |  |  |
| O=C(c1cc2cc(Cl)ccc2[nH]1)N1CCN(CCOc2cccnc2)CC1 [Compound 79] | none |  | 1400 |  |
| COc1cccc(OCCN2CCN(C(=O)c3nc4ccccc4[nH]3)CC2)c1 [Compound 9] |  | 285 |  |  |
| O=C(c1cc2cccnc2[nH]1)N1CCN(CCOc2cccnc2)CC1 [Compound 4, (4-(2-(pyridin-3-yloxy)ethyl)piperazin-1-yl)(1H-pyrrolo[2,3-b]pyridin-2-yl)methanone] |  | 13.5 |  |  |
| COc1ccc2[nH]c(C(=O)N3CCN(CCOc4cccnc4)CC3)cc2c1 [Compound 28] | None |  | 2600 |  |
| O=C(c1cc2ccccc2[nH]1)N1CCN(CCOc2ccc(Br)cc2)CC1 [Compound 102] |  |  |  | D2 EC50 [2]: none; D2 Emax [2]: none; IC50 [3]: > 100000 nM |
| COc1ccc(OC(C)CN2CCN(C(=O)c3cc4ccccc4[nH]3)CC2)cc1 (stereo not drawn) [Compound 120] |  | 82 |  |  |
| COc1ccc(OCCCN2CCN(C(=O)c3cc4ccccc4[nH]3)CC2)cc1 [Compound 122] |  |  |  | D3 EC50 [1]: none; D3 Emax [1]: none |
| COc1ccc(OCCCN2CCN(C(=O)c3ccc(OC)cc3)CC2)cc1 [Compound 112] |  |  |  | D3 EC50 [1]: none; D3 Emax [1]: none |
| O=C(c1cc2cccc(Cl)c2[nH]1)N1CCN(CCOc2cccnc2)CC1 [Compound 77] | none |  | 617 |  |

| SMILES | D2 IC50 [3] | EC50 [1] [nM] | EC50 [2] [nM] | also measured |
| --- | --- | --- | --- | --- |
| Cc1cccc2[nH]c(C(=O)N3CCN(CCOc4cccnc4)CC3)cc12 [Compound 24] | None |  | 180 |  |
| O=C(c1cc2ccccc2s1)N1CCN(CCOc2cccnc2)CC1 [Compound 6] |  | 13.3 |  |  |
| COc1cccc(OCCN2CCN(C(=O)c3cc4ccccc4[nH]3)CC2)c1 [Compound 14] |  | 33.8 |  |  |
| COc1ccc(C(=O)N2CCN(CCOc3ccccc3OC)CC2)cc1 [Compound 34] |  | 278 |  |  |
| O=C(c1n[nH]c2ccccc12)N1CCN(CCOc2cccnc2)CC1 [Compound 7] | None |  | 4100 |  |
| O=C(c1cc2ccccc2[nH]1)N1CCN(CCOc2ccc3[nH]ccc3c2)CC1 [Compound 16] |  | 60.9 |  |  |
| COc1ccc(OCCCN2CCN(C(=O)c3ccc(Cl)cc3)CC2)cc1 [Compound 115] |  |  |  | D3 EC50 [1]: none; D3 Emax [1]: none |
| COc1ccc(OCCN2CCN(C(=O)c3cc4cccnc4[nH]3)CC2)cc1 [Compound 56] |  | 167 |  |  |
| O=C(c1nc2ccccc2[nH]1)N1CCN(CCOc2cccnc2)CC1 [Compound 5] | None |  | 2400 |  |
| COc1cccc(OCCN2CCN(C(=O)c3cc4ccccc4[nH]3)CC2)c1 [Compound 94] |  | 33.8 |  |  |
| COc1ccc(OCCN2CCN(C(=O)c3cc4ncccc4[nH]3)CC2)cc1 [Compound 59] | none |  | > 100000 | D2 Emax [2]: curve |
| COc1ccc(OCCN2CCN(C(=O)c3ccc4[nH]ccc4c3)CC2)cc1 [Compound 31] |  |  | 2500 |  |
| CC(CN1CCN(C(=O)c2cc3ccccc3[nH]2)CC1)Oc1ccc(Cl)cc1 (stereo not drawn) [Compound 121] |  | 32 |  |  |
| COc1ccc2[nH]c(C(=O)N3CCN(CCOc4cccnc4)CC3)cc2c1 [Compound 72] | none |  | 2600 |  |
| COc1ccc(C(=O)N2CCN(CCOc3ccc4c(c3)OCO4)CC2)cc1 [Compound 66] | None |  | 7400 |  |
| O=C(c1cc2ccc(Cl)cc2[nH]1)N1CCN(CCOc2cccnc2)CC1 [Compound 78] | none |  | 183 |  |
| O=C(c1cc2c(Cl)cccc2[nH]1)N1CCN(CCOc2cccnc2)CC1 [Compound 80] | none |  | 217 |  |
| COc1ccc(OCCN2CCN(C(=O)c3cc4cc(Cl)ccc4[nH]3)CC2)cc1 [Compound 53] | none |  |  | D2 EC50 [2]: none; D2 Emax [2]: none |
| O=C(c1cc2ccccc2[nH]1)N1CCN(CCOc2cccnc2)CC1 [Compound 106] | none |  |  |  |
| COc1ccc2cc(C(=O)N3CCN(CCOc4cccnc4)CC3)[nH]c2c1 [Compound 71] |  | 6.4 |  |  |
| COc1ccc(OCCCCN2CCN(C(=O)c3cc4ccccc4[nH]3)CC2)cc1 [Compound 123] |  |  |  | D3 EC50 [1]: none; D3 Emax [1]: none |
